In US8609413B2, “Neurons, astrocytes and oligodendrocytes differentiated from a mammalian pluripotent or neural stem cells exposed to a pyridine deriviative” (Research Development Foundation, priority 2007, dated 2013):

System: H1 ES cells
Experiment: Real Time PCR of neural and non-neural markers during differentiation protocol 2
Type: cell-based, human
Conditions: 3 μM
Description: Real Time PCR. Reactions were run on an ABI Prism 7900 HT detection system (Applied Biosystems). ALAS and GusB were used as housekeeping genes. […] Sequences of the primers are shown in supplementary table.
The kinetics of emergence of neural and non-neural markers in DMSO and 3 μM phenazopyridine-treated H1 ES cells were evaluated using real time PCR. […] Expression of non-neural markers was next evaluated. […] The inventors reasoned that the persistence of these markers could be temporary and therefore investigated their expression after four weeks of differentiation.

Nc1ccc(/N=N/c2ccccc2)c(N)n1 [phenazopyridine]
expression of Oct-4 and brachyury (2 weeks): increased
expression of forebrain (Mash1) and ventral hindbrain (Nkx2.2, HoxB4, Olig2) markers (2 weeks): also upregulated
expression of α-fetoprotein (AFP) (2 weeks): did not vary between both conditions
expression of early (Pax6, nestin), intermediate (β3-tubulin, vimentin) and late (β3-tubulin, Map2) neuronal differentiation markers (2 weeks of differentiation, vs control): upregulation
expression of the same neural markers at 4 weeks (4 weeks of differentiation): significant differences in the expression of the same markers at 4 weeks of differentiation were not observed
downregulation of Oct4 (four weeks of differentiation): > 1000 fold
downregulation of brachyury (four weeks of differentiation): > 10 fold
downregulation of α-fetoprotein (four weeks of differentiation): > 1000 fold
